Experiments:
Assay type in all cases: physicochemical
[1] = tested on: dead bacterial cells of an ice nucleation active bacterium (Erwinia ananas); assay: Supercooling activity (ice nucleus formation inhibitory activity), 2-μL droplets on cooled copper plate, Erwinia ananas as ice nucleus substance; settings: for activity that allows water to be supercooled: 2 mg/mL Erwinia ananas, substance 0.01 to 3 mg/mL (FIG. 6); for freezing temperature (INT50): 0.1 mass % substance, 2 mg/mL dead E. ananas cells, cooling 0.2° C./min, temperature at which 50% of droplets froze
Procedure: (§1) In the present invention, a supercooling activity (also referred to as ice nucleus formation inhibitory activity) was measured by the following method. That is, an object to be measured was mixed at […] in a buffer containing an ice nucleus substance to prepare a solution, and many 2-μL liquid droplets of the solution were placed on a copper plate where the temperature could be controlled. The copper plate was cooled at 0.2° C./min, and the number of frozen liquid droplets was visually observed. The temperature at which 50% of the liquid droplets were frozen was defined as a freezing temperature, and a difference between the freezing temperature of the solution including the object to be measured and the ice nucleus substance and the freezing temperature of a solution including only the ice nucleus substance and the buffer (control) (INT50 (° C.)) was defined as a supercooling activity. As the buffer, a 50 mM potassium phosphate buffer (pH 7.0) was used.
The water suspension of the crude extract was centrifuged at 20° C. and 14,000 G, and the supernatant was collected. 300 mL of the supernatant and 600 mL of ethyl acetate were mixed, and the mixture was divided into a water-soluble part and an ethyl acetate-soluble part by a separating funnel, followed by drying. Supercooling activities of the parts were measured by the above-mentioned method. Dead bacterial cells of an ice nucleation active bacterium (Erwinia ananas) (manufactured by Wako Pure Chemical Industries, Ltd.) were used as an ice nucleus substance.
The fractions K to S obtained above were analyzed by high-performance liquid chromatography (column: PC hydrophilic interaction chromatography column (HILIC), solvent: acetonitrile:water=9:1, flow rate: 1 mL/min, detector: UV 280 nm). […] The three substances are known substances, and their structures were confirmed by ^1H-NMR. FIGS. 3 to 5 show the resultant ^1H-NMR charts. FIG. 6 show the supercooling activity of water containing each of the three substances with 2 mg/mL Erwinia ananas serving as an ice nucleus-forming substance, together with control data in the case of containing none of the three substances.
A substance to be measured (1 mg/mL) was mixed in a buffer containing any one of the ice nucleus substances and ultrapure water (MilliQ Water), and the supercooling activities were measured by the above-mentioned method. A difference between the freezing temperature of the solution containing the substance to be measured and the ice nucleus substance and the freezing temperature of the solution including only the ice nucleus substance, and a difference between the freezing temperature of pure water having dissolved therein the substance to be measured and the freezing temperature of only pure water were determined as supercooling activities (ice nucleus formation inhibitory activities) (see FIGS. 8 to 11 and Tables 1 to 4).

[2] = Supercooling activity, droplets on cooled copper plate, silver iodide as ice nucleus substance; settings: for supercooling activity: against an ice nucleus substance AgI, concentration not given; for freezing temperature (INT50): 0.1 mass % substance, 10 mM AgI, cooling 0.2° C./min
Procedure: as §1
In Examples 4 to 8 below, 10 mM silver iodide (AgI) (manufactured by NACALAI TESQUE, INC.), 2 mg/mL dead bacterial cells of an ice nucleation active bacterium Erwinia ananas (manufactured by Wako Pure Chemical Industries, Ltd.), 2 mg/mL dead bacterial cells of an ice nucleation active bacterium Xanthomonas campestris (manufactured by Wako Pure Chemical Industries, Ltd.), and 120 mM phloroglucinol (manufactured by TOKYO CHEMICAL […] CO., LTD.) were used as ice nucleus substances, and ultrapure water obtained by passing water through an ultrapure water device manufactured by Millipore Corporation was used (MilliQ Water). A substance to be measured (1 mg/mL) was mixed in a buffer containing any one of the ice nucleus substances and ultrapure water (MilliQ Water), and the supercooling activities were measured by the above-mentioned method. A difference between the freezing temperature of the solution containing the substance to be measured and the ice nucleus substance and the freezing temperature of the solution including only the ice nucleus substance, and a difference between the freezing temperature of pure water having dissolved therein the substance to be measured and the freezing temperature of only pure water were determined as supercooling activities (ice nucleus formation inhibitory activities) (see FIGS. 8 to 11 and Tables 1 to 4).

[3] = Supercooling activity, droplets on cooled copper plate, phloroglucinol as ice nucleus substance; settings: 0.1 mass % substance; 120 mM phloroglucinol; cooling 0.2° C./min
Procedure: as §1
(§2) In Examples 4 to 8 below, 10 mM silver iodide (AgI) (manufactured by NACALAI TESQUE, INC.), 2 mg/mL dead bacterial cells of an ice nucleation active bacterium Erwinia ananas (manufactured by Wako Pure Chemical Industries, Ltd.), 2 mg/mL dead bacterial cells of an ice nucleation active bacterium Xanthomonas campestris (manufactured by Wako Pure Chemical Industries, Ltd.), and 120 mM phloroglucinol (manufactured by TOKYO CHEMICAL […] CO., LTD.) were used as ice nucleus substances, and ultrapure water obtained by passing water through an ultrapure water device manufactured by Millipore Corporation was used (MilliQ Water). A substance to be measured (1 mg/mL) was mixed in a buffer containing any one of the ice nucleus substances and ultrapure water (MilliQ Water), and the supercooling activities were measured by the above-mentioned method. […]

[4] = Supercooling activity, droplets on cooled copper plate, ultrapure water without ice nucleus substance; settings: 0.1 mass % substance; ultrapure water (MilliQ Water); cooling 0.2° C./min
Procedure: as §1, §2

[5] = tested on: dead bacterial cells of an ice nucleation active bacterium Xanthomonas campestris; assay: Supercooling activity, droplets on cooled copper plate, Xanthomonas campestris as ice nucleus substance; settings: 0.1 mass % substance; 2 mg/mL dead X. campestris cells; cooling 0.2° C./min
Procedure: as §1, with “used. […]” for “used.”

2,3,6-tri-O-galloyl-α,β-D-hamamelose
activity that allows water to be supercooled [1]: about 5 °C

O=c1oc2c(O)c(O)cc3c(=O)oc4c(O)c(O)cc1c4c23 [EA, ellagic acid]
supercooling activity [2]: −0.3 °C

Oc1cc(O)c2c(c1)O[C@H](c1cc(O)c(O)c(O)c1)[C@H](O)C2 [EGC, epigallocatechin]
freezing temperature (INT50) [1]: −5.7 °C
freezing temperature (INT50) [2]: −6.9 °C
freezing temperature (INT50) [3]: −8.8 °C
freezing temperature (INT50) [4]: −15.8 °C

O=C(O[C@@H]1Cc2c(O)cc(O)cc2O[C@@H]1c1cc(O)c(O)c(O)c1)c1cc(O)c(O)c(O)c1 [EGCG, epigallocatechin gallate]
freezing temperature (INT50) [1]: −8.3 °C
freezing temperature (INT50) [2]: −6.9 °C
freezing temperature (INT50) [5]: −8.9 °C
freezing temperature (INT50) [3]: −8.4 °C
freezing temperature (INT50) [4]: −20.0 °C

O=C(O)/C=C/c1ccc(O)c(O)c1 [CaA, caffeic acid]
supercooling activity [2]: −1.9 °C

O=C(O[C@@H]1Cc2c(O)cc(O)cc2O[C@@H]1c1ccc(O)c(O)c1)c1cc(O)c(O)c(O)c1 [ECG, epicatechin gallate]
freezing temperature (INT50) [1]: −8.4 °C
freezing temperature (INT50) [2]: −7.8 °C
freezing temperature (INT50) [5]: −8.7 °C
freezing temperature (INT50) [3]: −9.6 °C
freezing temperature (INT50) [4]: −18.7 °C

O=C(O)c1cc(O)c(O)c(O)c1 [GA, gallic acid]
supercooling activity [2]: −1.2 °C

O=C(/C=C/c1ccc(O)c(O)c1)O[C@@H]1C[C@](O)(C(=O)O)C[C@@H](O)[C@H]1O [ChA, chlorogenic acid]
supercooling activity [2]: −0.6 °C

O=C(OC[C@H]1O[C@@H](OC(=O)c2cc(O)c(O)c(O)c2)[C@H](OC(=O)c2cc(O)c(O)c(O)c2)[C@@H](OC(=O)c2cc(O)c(O)c(O)c2)[C@@H]1O)c1cc(O)c(O)c(O)c1 [1,2,3,6-tetra-O-galloyl-β-D-glucose]
activity that allows water to be supercooled [1]: about 5 °C

O=C(OC[C@H]1O[C@@H](OC(=O)c2cc(O)c(O)c(O)c2)[C@H](OC(=O)c2cc(O)c(O)c(O)c2)[C@@H](O)[C@@H]1O)c1cc(O)c(O)c(O)c1 [1,2,6-tri-O-galloyl-β-D-glucose]
activity that allows water to be supercooled [1]: about 5 °C

COC(=O)c1cc(O)c(O)c(O)c1 [MG, methyl gallate]
supercooling activity [2]: −3.3 °C

Reference: US20130004936A1, “SUPERCOOLING PROMOTING AGENT” (National University Corporation Hokkaido Universit, priority 2010, published 2013)
